Values quoted from earlier work, collected in patent US20060034895A1, “Supplement food for low blood glucose recovery” (priority 2003, published 2006).

O=C[C@H](O)[C@@H](O)[C@H](O)[C@H](O)CO [D-glucose]
solubility in alcohol (alcohol): cannot melt into an alcohol easily | solubility in ether (ether): insoluble to ether | solubility in water (water): easy to melt into water
